Reference: paper PMC6891328, “Design, Synthesis and Biological Evaluation of Diosgenin-Amino Acid Derivatives with Dual Functions of Neuroprotection and Angiogenesis” (Molecules, 2019)
“And” between values parts separate entries of the source, which are not always exact repeats. Identical values can stand only once. Like-named read-outs stand apart in the source and are kept apart here.

Experiments:
SH-SY5Y cells [1] = settings: for EC50: read-out: EC50 (neuroprotection), SH-SY5Y damaged by TBHP, 24 h, MTT, n = 3
[2] = Biosafety (cytotoxicity) evaluation on H9c2 cells (MTT); assay type: cell-based, rat; settings: rat, H9c2 cells; H9c2, 50 μM, MTT; read-out: cell viability
Procedure: (§1) Compounds DG-13 and DG-15 dissolved in DMSO were added to each well with required concentrations (3.125, 6.25, 12.5, 25, 50 µM). Then the control group were treated with the same volume of medium. The non-administered group were not treated (no cells and no medium). Then the sterile plates were further incubated for 4 h, following MTT addition. After 4 h, supernatant liquor was removed into the waste and all of the wells were then placed into the fresh DMSO (0.15 mL). The absorbance was measured using BIORAD 550 spectrophotometer with the emission wavelengths of 490 nm. Each data was measured three times in parallel survival fraction of cells, calculated by the equation: [OD490 (Drug group) − OD490 (non-administered group)]/[OD490 (Control group) − OD490 (non-administered group)] ×100%.

H9c2 cells = assay: as above; assay type: cell-based, rat; settings: for cytotoxicity (in words): H9c2, 3.125-50 μM
Procedure: as §1

chorioallantoic membrane = assay: Angiogenesis in chorioallantoic membrane (CAM) model; assay type: in vivo, chicken; settings: new vessels inner diameter < 100 μm
Procedure: The CAM was examined as a predictive model for the angiogenic activity studies of compounds DG-15. The wide end of the fresh fertilized egg was placed upward in an incubator at 37 °C with a relative humidity of 60%. All the eggs were turned every two hours to prevent from sticking to each other. Compound DG-15 was dissolved with acetone at a concentration of 1 mg/mL and 4 mg/mL and then 5 µL solution was transferred to gelatin sponge using a pipette respectively. The sham treatment group was added to the same volume of saline. Disinfected with UV lamp for 30 min. After 7 days, the broader said of eggs was disinfected with 70% alcohol, then a 30-mm-diameter window was carefully opened in the shell to reduce the chamber pressure before removed the upper shell membrane with tweezers. In addition, the non-fertilized oocytes and unhealthy developed embryos were thrown away. Then the gelatin sponge was embedded into the allantoic membrane and the window was sealed with adhesive tape, with the eggs being returned to the incubator. The eggs were then incubated 3 days after administration, fixed with methanol-acetone (1:1) for 10 min and repeated four times. […] The vascular growth was analyzed with a dissecting microscope and counted by software of Image Professional Plus 5.0 software (Media Cybernetics, Inc, MD, USA)

SH-SY5Y cells [3] = assay: Morphological observation of TBHP-damaged SH-SY5Y cells by Giemsa and DAPI staining; assay type: cell-based, human; settings: TBHP-damaged SH-SY5Y, 10, 20, 40 μM
Procedure: Afterwards, the medium containing compound DG-15 were added to the cultures for 24 h and the concentration range of the examined compounds was 10, 20 and 40 µM. Then 0.1 mL TBHP was used to damage cells and the plate was cultured for further 24 h. Removing the culture medium, washing twice with PBS and fixing cells with 2 mL methanol for 2 min and 1 mL paraformaldehyde for 15 min respectively and washed with fresh PBS again. Giemsa solution or DAPI was added to stain the fixed cells for 2 min and protected from light. Finally, the cells ware washed with water and were observed under inverted fluorescent microscope.

| Compound | EC50 (SH-SY5Y cells [1]) | melting point [°C] | also measured |
| --- | --- | --- | --- |
| C[C@@H]1CC[C@@]2(OC1)O[C@H]1C[C@H]3[C@@H]4CC=C5C[C@@H](O)CC[C@]5(C)[C@H]4CC[C@]3(C)[C@H]1[C@@H]2C [DG, diosgenin] | > 50 µM |  | EC50 (SH-SY5Y cells [1]; listed as diosgenin): > 40 µM; viability at 50 µM [2]: ~60%; cytotoxicity (in words) (H9c2 cells; MTT): toxic under all treated groups |
| CC1CCC2(OC1)OC1CC3C4CC=C5CC(OC(=O)CNC(=O)OC(C)(C)C)CCC5(C)C4CCC3(C)C1C2C (stereo not drawn) [DG-1, 3β-(N-Boc-glycine)-diosgenin] | > 50 µM | 218.7 |  |
| CC1CCC2(OC1)OC1CC3C4CC=C5CC(OC(=O)C(C)NC(=O)OC(C)(C)C)CCC5(C)C4CCC3(C)C1C2C [DG-2, 3β-(N-Boc-L-alanine)-diosgenin] |  | 218.9 |  |
| CC1CCC2(OC1)OC1CC3C4CC=C5CC(OC(=O)CN(C)C(=O)OC(C)(C)C)CCC5(C)C4CCC3(C)C1C2C (stereo not drawn) [DG-3, 3β-(N-Boc-sarcosine)-diosgenin] | 15.2 ± 0.96 µM |  |  |
| CC1CCC2(OC1)OC1CC3C4CC=C5CC(OC(=O)C6CCCN6C(=O)OC(C)(C)C)CCC5(C)C4CCC3(C)C1C2C [DG-4, 3β-(N-Boc-L-proline)-diosgenin] | 23.8 ± 6.83 µM | 183.4 |  |
| CC(C)CC(NC(=O)OC(C)(C)C)C(=O)OC1CCC2(C)C(=CCC3C2CCC2(C)C3CC3OC4(CCC(C)CO4)C(C)C32)C1 [DG-5, 3β-(N-Boc-L-leucine)-diosgenin] | 9.51 ± 1.79 µM |  |  |
| CCC(C)C(NC(=O)OC(C)(C)C)C(=O)OC1CCC2(C)C(=CCC3C2CCC2(C)C3CC3OC4(CCC(C)CO4)C(C)C32)C1 [DG-6, 3β-(N-Boc-L-isoleucine)-diosgenin] | 18.5 ± 1.87 µM |  |  |
| CC1CCC2(OC1)OC1CC3C4CC=C5CC(OC(=O)C(Cc6ccccc6)NC(=O)OC(C)(C)C)CCC5(C)C4CCC3(C)C1C2C [DG-7, 3β-(N-Boc-L-phenylalanine)-diosgenin] | > 50 µM | 163.4 |  |
| CC1CCC2(OC1)OC1CC3C4CC=C5CC(OC(=O)C(NC(=O)OCc6ccccc6)C(C)C)CCC5(C)C4CCC3(C)C1C2C [DG-8, 3β-(N-Cbz-L-valine)-diosgenin] | 38.1 ± 6.68 µM | 158.4 |  |
| CC1CCC2(OC1)OC1CC3C4CC=C5CC(OC(=O)C(CCCCNC(=O)OCc6ccccc6)NC(=O)OCc6ccccc6)CCC5(C)C4CCC3(C)C1C2C [DG-9, 3β-(N-Cbz-L-lysine)-diosgenin] | 36.2 ± 8.67 µM | 135.8 |  |
| CC1CCC2(OC1)OC1CC3C4CC=C5CC(OC(=O)CN)CCC5(C)C4CCC3(C)C1C2C (stereo not drawn) [DG-10, 3β-(glycine)-diosgenin] | > 50 µM | 110.8 |  |
| CC1CCC2(OC1)OC1CC3C4CC=C5CC(OC(=O)C(C)N)CCC5(C)C4CCC3(C)C1C2C [DG-11, 3β-(L-alanine)-diosgenin] | > 50 µM | 219.1 |  |
| CNCC(=O)OC1CCC2(C)C(=CCC3C2CCC2(C)C3CC3OC4(CCC(C)CO4)C(C)C32)C1 (stereo not drawn) [DG-12, 3β-(sarcosine)-diosgenin] | > 50 µM | 176 |  |
| CC1CCC2(OC1)OC1CC3C4CC=C5CC(OC(=O)C6CCCN6)CCC5(C)C4CCC3(C)C1C2C [DG-13, 3β-(L-proline)-diosgenin] | 7.22 ± 1.58 µM |  | survival rate (H9c2 cells; H9c2, 25 μM, MTT): 12%; cytotoxicity (in words) (H9c2 cells; MTT): significantly enhanced compared with diosgenin |
| CC(C)CC(N)C(=O)OC1CCC2(C)C(=CCC3C2CCC2(C)C3CC3OC4(CCC(C)CO4)C(C)C32)C1 [DG-14, 3β-(L-leucine)-diosgenin] | 32.6 ± 0.97 µM | 154.4 |  |
| CCC(C)C(N)C(=O)OC1CCC2(C)C(=CCC3C2CCC2(C)C3CC3OC4(CCC(C)CO4)C(C)C32)C1 [DG-15, 3β-(L-isoleucine)-diosgenin] | 6.86 ± 0.69 µM | 147.1 | increase of number of blood vessels (chorioallantoic membrane; 1 mg/mL on gelatin sponge): 60.61%; increase of number of blood vessels (chorioallantoic membrane; 4 mg/mL on gelatin sponge): 80.30%; morphological change, DAPI staining (SH-SY5Y cells [3]): the number of SH-SY5Y cells was increasingly larger; morphological change, Giemsa staining (SH-SY5Y cells [3]): the typical signs for apoptosis were reduced; cytotoxicity (in words) (H9c2 cells; MTT): no cytotoxicity; inhibitory effect on cells (H9c2 cells; H9c2, concentrations below 25 μM): no inhibitory effect |
| CC1CCC2(OC1)OC1CC3C4CC=C5CC(OC(=O)C(N)Cc6ccccc6)CCC5(C)C4CCC3(C)C1C2C [DG-16, 3β-(L-phenylalanine)-diosgenin] | 11.4 µM and 11.2 µM |  |  |
| CC1CCC2(OC1)OC1CC3C4CC=C5CC(OC(=O)C(N)C(C)C)CCC5(C)C4CCC3(C)C1C2C [DG-17, 3β-(L-valine)-diosgenin] | > 50 µM | 139.1 |  |
| CC1CCC2(OC1)OC1CC3C4CC=C5CC(OC(=O)C(N)CCCCN)CCC5(C)C4CCC3(C)C1C2C [DG-18, 3β-(L-lysine)-diosgenin] | > 50 µM | 189.4 | cytotoxicity seen in neuroprotective activity evaluation (in words) (SH-SY5Y cells [1]; SH-SY5Y, compared with compounds with neutral amino acids): higher cytotoxicity |
| CC1=NN(c2ccccc2)C(=O)C1 [Edaravone, edaravone, reference compound] | 21.6 ± 3.04 µM |  |  |
